Literature values in patent US5434174A, “Isoxazole derivatives for the treatment of irritable bowel syndrome” (priority 1993, dated 1995).

Conditions: IBS therapy; cited from earlier work

CCN(CC)CCOC(=O)C1(C2CCCCC2)CCCCC1 [Bentyl]
side effects: serious side effects
